Reference: patent US7321046B2, “Analogs of dictyostatin, intermediates therefor and methods of synthesis thereof” (University of Pittsburgh, priority 2002, dated 2008)
Where two headings read alike, the source gives them in different places.

Tests used:
[1] = system: HeLa cells; test: Multiparameter fluorescence high information content analysis of cellular effects; assay type: cell-based; design: unit not given here; details: 24 h treatment; for Minimum detectable cellular change, Nuclear condensation: Hoechst 33342
Procedure: HeLa cells were plated on collagen-coated 384-well microtiter plates, allowed to attach, then treated for 24 h with test agents. Test agent concentrations began at 1 μM, and two-fold dilutions were made to levels below 1 nM. After the treatment period, the cells were fixed with formalin and their chromatin stained with Hoechst 33342. Cells were permeabilized and treated with primary antibodies for α-tubulin and phosphohistone H3, and then with fluorophore-labeled secondary antibodies. The three fluorescent channels were then examined on an ArrayScan II, which gives quantitative pixel distribution and density information in each channel on a per cell basis.
HeLa cells growing at log phase were trypsinized and plated in 40 μL at a density of 7,000-8,000 cells per well in calf skin collagen I-coated 384-well plates (Falcon #3962; Fisher Scientific). Cells were exposed to test agents or 0.5% DMSO within 2-8 h of plating. Concentrated DMSO stock solutions of all test agents were diluted into solutions of HBSS medium plus 10% FBS and added to the microplate wells (10 μL per well), using an automated liquid handling system (Biomek® 2000; Beckman-Coulter, Inc.) to provide a serial 2-fold dilution of each test agent. The cells were incubated in the presence of test agents for 24 h. At the end of the incubation, the medium was removed and replaced with HBSS containing 4% formaldehyde and 10 μg/mL Hoechst 33342 (25 μL/well) to fix the cells and fluorescently label their chromatin. After incubation at room temperature for 20-30 min, the solution was removed from each well and replaced with HBSS (100 μL/well). Further reagent additions were made to the microplates using the Biomek 2000. After removing the HBSS from each well, cells were permeabilized for 5 min at room temperature with 0.5% (w/w) Triton X-100 in HBSS (10 μL/well). This step extracts a fraction of the soluble cellular components, including soluble tubulin. The wells were washed with HBSS (100 μL/well), followed by addition of a primary antibody solution containing mouse anti-α-tubulin (1:3000) and rabbit anti-phosphohistone H3 (1:500) in HBSS (10 μL/well). After 1 h at room temperature, the wells were washed with HBSS as above, followed by the addition of a secondary antibody solution containing fluorescein-5-isothiocyanate (FITC)-labeled donkey anti-mouse (1:300) and Cy3-labeled donkey anti-rabbit (1:300) antibodies diluted in HBSS (10 μL/well). After 1 h at room temperature, the wells were washed as above, and HBSS was added (100 μL/well). The plates were placed in an ArrayScan® HCS Reader with the Target Activation BioApplication Software coupled to Cellomics® Store and the vHCS™ Discovery Toolbox (Cellomics, Inc.) to analyze images. Briefly, the instrument was used to scan multiple optical fields, each with multiparameter fluorescence, within a subset of the wells of the 384-well microplate. The BioApplication software produced multiple numerical feature values, such as subcellular object intensities, shapes, and location for each cell within an optical field. […] A nuclear mask was generated from Hoechst 33342-stained nuclei, and object identification thresholds and shape parameters were set such that the algorithm identified over 90% of the nuclei in each field. Objects that touched each other or the edge of the image were excluded from the analysis. Tubulin mass was defined as the average green (FITC) pixel intensity in an area defined by the Hoechst-defined nuclear mask. This cytoplasmic area around the nucleus contains cytoskeletal components is a region from which sensitive measurements of cytoplasmic characteristics can be made.

[2] = system: microtubules (tubulin polymer); test: Radiolabeled ligand binding assays; details: test agent 4 μM; radiolabel 4.0 μM; 37° C.
Procedure: The abilities of test agents to inhibit the binding of radiolabeled forms of the microtubule stabilizers paclitaxel, discodermolide and epothilone B from tubulin polymer were determined.
[^3H]Paclitaxel, [^3H]discodermolide and [^14C]epothilone B solutions were prepared as 125 μM stock solutions in 50% DMSO. Radiolabeled compound (final concentration, 4.0 μM) and test agents at final concentrations noted in the text and tables were mixed in 50 μL of 4:1 (v/v) 0.75 M aqueous MSG/DMSO and warmed to 37° C. Meanwhile, a reaction mixture containing 0.75 M MSG, 2.5 μM tubulin, and 25 μM ddGTP was prepared and incubated at 37° C. for 30 min to form microtubuless. A 200 μL aliquot of the microtubule mixture was added to the drug mixtures, and incubation continued for 30 min at 37° C. Reaction mixtures were centrifuged in an Eppendorf 5417C centrifuge at 14,000 rpm for 20 min at room temperature. Radiolabel in the supernatants (100 μL) was determined by scintillation spectrometry.

[3] = system: 1A9/Ptx22 (Ala364 −> Thr) β-tubulin mutant cells; test: Antiproliferative assay (GI50, MTS), paclitaxel-resistant clone; assay type: cell-based, human; details: for fold-resistance: 1A9/Ptx22 versus parental 1A9; for GI50: 1A9/Ptx22 (Ala364 −> Thr), 72 h incubation, read-out: GI50 ± S.D.
Procedure: (§1) Representative analogs were examined for their antiproliferative activities against human ovarian carcinoma 1A9 cells and their paclitaxel-resistant mutants, 1A9/Ptx10 and 1A9/Ptx22.
(§2) The effects of dictyostatin and its analogs on growth inhibition of parental (A549) and paclitaxel-resistant (1A9/Ptx10 and Ptx22) ovarian adenocarcinoma cell lines were evaluated following the antiproliferative assay protocol as described earlier (Minguez et al., 2003; Choy et al., 2003; Lazo et al., 2001). Cells were maintained in RPMI medium with 10% FBS in it, plated in tissue culture plates, and allowed to grow for 48-72 h before transferring them into 96-well plates. Cells were allowed to attach and grow for 48 h in 96-well plates after which they were treated with either control (DMSO) or drug in triplicate/quadruplicate. Cells were incubated with the compounds for 72 h. Cells were treated with MTS reagent before reading the plate in a Dynamax plate reader for determining the cell number. The fifty percent growth inhibition values (GI50 values) were calculated for the compounds against all the three cell lines.

[4] = system: 1A9/Ptx10 (Phe270 −> Val) β-tubulin mutant cells; test: as above; assay type: cell-based, human; details: for fold-resistance: 1A9/Ptx10 versus parental 1A9; for GI50: 1A9/Ptx10 (Phe270 −> Val), 72 h incubation, read-out: GI50 ± S.D.
Procedure: as §1, §2

[5] = system: human ovarian carcinoma cells (1A9); test: Antiproliferative assay (GI50, MTS); assay type: cell-based; details: for GI50: 1A9 parental cells, 72 h incubation, read-out: GI50 ± S.D.; for antiproliferative potency / GI50 values (in words): Table 1 (1A9 and mutant lines)
Procedure: as §1
as §2, with “The effects of dictyostatin and its analogs on growth inhibition of parental (A549) and paclitaxel-resistant (1A9/Ptx10 and Ptx22) ovarian adenocarcinoma cell lines were evaluated following the antiproliferative assay protocol as described earlier (Minguez et al., 2003; Choy et al., 2003; Lazo et al., 2001).” left out

[6] = system: T1, Bovine brain tubulin; test: Pelleting assay (tubulin assembly EC50 determination); assay type: biochemical; details: tubulin 10 μM in 0.2 M MSG, 15 min at 20° C.; for EC50: concentration required to polymerize 50% of tubulin, read-out: EC50 (μM) ± SD (N)
T1 construct: Bovine brain tubulin (10 μM) in 0.2 M MSG, 15 min at 20° C
Procedure: Dictyostatin and representative analogs were evaluated in a quantitative assay for their ability to promote tubulin polymerization. […] When the percent polymer formed was determined in the reactions, a comparison of the activities of all the analogs could be made.
The assay was performed under three different reaction conditions following the procedure reported earlier (Gapud et al., 2004). Reaction condition 1 included 0.2 M monosodium glutamate (MSG), 10 μM tubulin, 5% DMSO and varying concentrations of test agents. Reaction condition 2 included 0.8 M MSG, 400 μM GTP, 10 μM tubulin, 5% DMSO, and varying concentrations of test agents. Reaction condition 3 had 0.6 M MSG, 200 μM GTP, and 10 μM tubulin, and 5% DMSO, and varying concentrations of the test agents. The experimental protocol for all the three reaction conditions was the following. The reaction mixtures were incubated at room temperature (20-22° C.) for 15 min and spun for 10 min at 14,000 rpm in an Eppendorf microtube centrifuge. Aliquots of the supernatants were removed and assayed for protein content by the method of Lowry.

[7] = ester bond, toluene, 2 steps

Row | SMILES | Minimum detectable cellular change, Phosphohistone H3 [1] | Minimum detectable cellular change, Tubulin polymer intensity [1] | Minimum detectable cellular change, Nuclear condensation [1] | fold-resistance [3] | fold-resistance [4] | antiproliferative potency / GI50 values (in words) [5] | % Tubulin polymerized by 50 μM test agent [6] | EC50 [6] | also measured
1 | CC(=O)O[C@H]1C(=O)[C@@]2(C)[C@H]([C@H](OC(=O)c3ccccc3)[C@]3(O)C[C@H](OC(=O)[C@H](O)[C@@H](NC(=O)c4ccccc4)c4ccccc4)C(C)=C1C3(C)C)[C@]1(OC(C)=O)CO[C@@H]1C[C@@H]2O [paclitaxel, reference compound] | 17.5 ± 6.8 (4) | 8.0 ± 2.9 (4) | 40.2 ± 13.9 (4) | 72 fold | 90 fold | subnanomolar potency | 89 ± 6% | 25 ± 3 µM | Percent inhibition of radiolabel from microtubules, [3H]Discodermolide [2]: 6 ± 5 (3) %; Percent inhibition of radiolabel from microtubules, [14C]Epothilone B [2]: 26 ± 1 (3) %; fold-resistance ([3]; listed as Paclitaxel): ~70 fold; GI50 ([3]; Homo sapiens, 1A9/ptx-22, 72 h): 0.051 ± 0.009 µM; fold-resistance ([4]; listed as Paclitaxel): ca. 90 fold; GI50 ([4]; Homo sapiens, 1A9/ptx-10, 72 h): 0.064 ± 0.008 µM; GI50 ([5]; Homo sapiens, Ovarian carcinoma cell, 72 h): 0.00071 ± 0.00011 µM
2 | C=C/C=C\[C@H](C)[C@@H]1OC(=O)/C=C\C=C\[C@H](C)[C@@H](O[Si](C)(C)C(C)(C)C)C[C@H](O[Si](C)(C)C(C)(C)C)/C=C\[C@H](C)[C@H](O[Si](C)(C)C(C)(C)C)[C@H](C)C[C@@H](C)CC[C@@H](O[Si](C)(C)C(C)(C)C)C1C (stereo in doubt) |  |  |  |  |  |  |  |  | ring closure, yield of all isomers ([7]; from C=C/C=C\[C@H](C)[C@H](O)[C@@H](C)[C@@H](CC[C@H](C)C[C@@H](C)[C@@H](O[Si](C)(C)C(C)(C)C)[C@@H](C)/C=C\[C@H](C[C@H](O[Si](C)(C)C(C)(C)C)[C@@H](C)/C=C/C=C\C(=O)O)O[Si](C)(C)C(C)(C)C)O[Si](C)(C)C(C)(C)C, 2,4,6-trichlorobenzoyl chloride / Et3N / DMAP, 1.94 mM, 25.0 °C, 16.0 h): 78%
3 | C=CC=CC(C)C1OC(=O)C=CC=CC(C)C(O)CC(O)C=CC(C)C(O)C(C)CC(C)CCC(O)C1C [Compound 109, 8(S),10(S),14(R),20(S)-Tetrahydroxy-7(S),13(S),15(R),17(S),21(S)-pentamethyl-22(S)-(1(S)-methyl-penta-2,4-dienyl)oxacyclodocosa-3(E),5(E),11(Z)-trien-2-one] | >5000 (4) | >5000 (4) | >5000 (4) | 1.2 fold | 1 fold | mid micromolar GI50 values | 5 ± 4% | > 50 µM | Percent inhibition of radiolabel from microtubules, [3H]Paclitaxel [2]: 0 ± 1%; GI50 [3]: 30 ± 1 µM; GI50 [4]: 25 ± 1 µM; GI50 [5]: 25 ± 2 µM
4 | C=C/C=C\[C@H](C)[C@@H]1OC(=O)/C=C\C=C\[C@@H](C)[C@@H](O[Si](C)(C)C(C)(C)C)C[C@H](O[Si](C)(C)C(C)(C)C)/C=C\[C@H](C)[C@H](O[Si](C)(C)C(C)(C)C)[C@@H](C)C[C@@H](C)CC[C@H](O[Si](C)(C)C(C)(C)C)[C@@H]1C |  |  |  |  |  |  |  |  | ring closure, yield of all isomers ([7]; from C=C/C=C\[C@H](C)[C@H](O)[C@@H](C)[C@H](CC[C@H](C)C[C@H](C)[C@@H](O[Si](C)(C)C(C)(C)C)[C@@H](C)/C=C\[C@H](C[C@H](O[Si](C)(C)C(C)(C)C)[C@H](C)/C=C/C=C\C(=O)O)O[Si](C)(C)C(C)(C)C)O[Si](C)(C)C(C)(C)C, 2,4,6-trichlorobenzoyl chloride / Et3N / DMAP (Yamaguchi), 1.74 mM, 25.0 °C, 12.0 h): 78%
5 | C=C/C=C\[C@H](C)[C@@H]1OC(=O)/C=C\C=C\[C@@H](C)[C@@H](O[Si](C)(C)C(C)(C)C)C[C@H](O[Si](C)(C)C(C)(C)C)/C=C\[C@H](C)[C@H](O[Si](C)(C)C(C)(C)C)[C@@H](C)CCCC[C@@H](O[Si](C)(C)C(C)(C)C)[C@@H]1C |  |  |  |  |  |  |  |  | ring closure, yield of all isomers ([7]; from C=C/C=C\[C@H](C)[C@H](O)[C@@H](C)[C@@H](CCCC[C@H](C)[C@@H](O[Si](C)(C)C(C)(C)C)[C@@H](C)/C=C\[C@H](C[C@H](O[Si](C)(C)C(C)(C)C)[C@H](C)/C=C/C=C\C(=O)O)O[Si](C)(C)C(C)(C)C)O[Si](C)(C)C(C)(C)C, 2,4,6-trichlorobenzoyl chloride / Et3N / DMAP, 2.0 mM): 76%
